Read-outs that look alike come from different tables or passages of the source.
Legend:
[1] = system: p21 induction in HCT 116 cells; assay: p21 induction in cells (In-Cell Western, p21/GAPDH ratio); assay type: cell-based; settings: 24 h compound incubation, read-out: p21_EC50
Method in brief: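 EC50 values come from nonlinear fits of percent activation, defined by the 800/700 nm p21-to-GAPDH ratio scaled between DMSO (low) and internal WRN inhibitor (high) controls. In-Cell Western read after 24 h compound exposure of HCT 116 cells at 37° C. Duplicate 11-point series, 2-fold steps, usually starting at 10 μM.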

[2] = biological target: human Werner helicase (WRN, amino acids 517-1235 with L1074F point mutation) (Homo sapiens (Human), UniProt Q14191, L1074F); assay: WRN (BV08) ADP-Glo assay; assay type: biochemical; settings: human WRN (aa 517-1235, L1074F), read-out: ADP-Glo_hWRN_IC50
Method in brief: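 ADP-Glo luminescence read after 60 min, 25 °C reaction of 0.15 nM WRN (517-1235, L1074F, Sf9-expressed, tag removed) with 0.1 nM DNA duplex and 5 μM ATP, following 15 min compound preincubation; 20 mM Bicine pH 7.5, 1% DMSO. IC50 from 3- or 4-parameter fit of % inhibition.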

human Werner helicase (WRN, amino acids 517-1235 with L1074F point mutation), sequence (Q14191 other isoform, or with tags, fused parts or gaps L1074F (already in the parent)): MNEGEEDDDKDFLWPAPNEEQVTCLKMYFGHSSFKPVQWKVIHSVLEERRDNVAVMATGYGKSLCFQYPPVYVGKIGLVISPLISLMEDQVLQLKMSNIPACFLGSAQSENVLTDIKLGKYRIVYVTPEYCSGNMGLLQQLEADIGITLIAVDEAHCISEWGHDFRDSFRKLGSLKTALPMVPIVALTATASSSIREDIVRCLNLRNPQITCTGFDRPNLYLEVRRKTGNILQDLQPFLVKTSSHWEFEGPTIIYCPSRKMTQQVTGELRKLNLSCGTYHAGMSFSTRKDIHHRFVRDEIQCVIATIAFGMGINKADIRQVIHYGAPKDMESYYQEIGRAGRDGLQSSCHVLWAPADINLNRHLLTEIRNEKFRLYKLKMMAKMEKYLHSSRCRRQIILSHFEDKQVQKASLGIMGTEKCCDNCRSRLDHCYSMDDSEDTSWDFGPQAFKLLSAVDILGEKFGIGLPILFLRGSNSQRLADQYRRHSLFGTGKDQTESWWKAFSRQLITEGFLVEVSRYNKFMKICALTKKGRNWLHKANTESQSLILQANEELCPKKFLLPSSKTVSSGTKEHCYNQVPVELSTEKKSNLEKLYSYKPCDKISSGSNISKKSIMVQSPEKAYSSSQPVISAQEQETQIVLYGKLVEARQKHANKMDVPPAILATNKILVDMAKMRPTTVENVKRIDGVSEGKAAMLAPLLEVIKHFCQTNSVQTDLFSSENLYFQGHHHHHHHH

Row | Structure (SMILES) | EC50 ([1]; Homo sapiens) [nM] | IC50 [2] [nM] | EC50 [1] [nM]
1 | CCc1c(N2CCN(C(=O)c3cnccc3OC)[C@H]3CC[C@@H]32)c(=O)c2nn(C3=CCOCC3)nc2n1CC(=O)NC12CC(C(C)C)(C1)C2 [Compound I-203, 2-[2-(3,6-dihydro-2H-pyran-4-yl)-5-ethyl-6-[(1S,6S)-5-(4-methoxypyridine-3-carbonyl)-2,5-diazabicyclo[4.2.0]octan-2-yl]-7-oxo-2H,4H,7H-[1,2,3]triazolo[4,5-b]pyridin-4-yl]-N-[3-(propan-2-yl)bicyclo[1.1.1]pentan-1-yl]acetamide] | 500 to 2000 | 5 to 50 | 
2 | CCc1c(N2CCN(C(=O)c3nocc3O)[C@H]3CC[C@@H]32)c(=O)c2nn(C3=CCOCC3)nc2n1CC(=O)NC12CC(C(C)C)(C1)C2 [Compound I-171, 2-[2-(3,6-dihydro-2H-pyran-4-yl)-5-ethyl-6-[(1S,6S)-5-(4-hydroxy-1,2-oxazole-3-carbonyl)-2,5-diazabicyclo[4.2.0]octan-2-yl]-7-oxo-2H,4H,7H-[1,2,3]triazolo[4,5-b]pyridin-4-yl]-N-[3-(propan-2-yl)bicyclo[1.1.1]pentan-1-yl]acetamide] | ≤ 500 | ≤ 5 | 
3 | CCc1c(N2CCN(C(=O)c3cccc(N4CCN(C)CC4)c3OC)[C@H]3CC[C@@H]32)c(=O)c2nn(C3=CCOCC3)nc2n1CC(=O)NC12CC(C(C)C)(C1)C2 [Compound I-169, 2-[2-(3,6-dihydro-2H-pyran-4-yl)-5-ethyl-6-[(1S,6S)-5-[2-methoxy-3-(4-methylpiperazin-1-yl)benzoyl]-2,5-diazabicyclo[4.2.0]octan-2-yl]-7-oxo-2H,4H,7H-[1,2,3]triazolo[4,5-b]pyridin-4-yl]-N-[3-(propan-2-yl)bicyclo[1.1.1]pentan-1-yl]acetamide] | 2000 to 5000 | 5 to 50 | 
4 | CCc1c(N2CCN(C(=O)c3c(C#N)cncc3OC)[C@H]3CC[C@@H]32)c(=O)c2nn(C3=CCOCC3)nc2n1CC(=O)NC12CC(C(C)C)(C1)C2 [Compound I-168, 2-{6-[(1S,6S)-5-(3-cyano-5-methoxypyridine-4-carbonyl)-2,5-diazabicyclo[4.2.0]octan-2-yl]-2-(3,6-dihydro-2H-pyran-4-yl)-5-ethyl-7-oxo-2H,4H,7H-[1,2,3]triazolo[4,5-b]pyridin-4-yl}-N-[3-(propan-2-yl)bicyclo[1.1.1]pentan-1-yl]acetamide] | 500 to 2000 | 5 to 50 | 
5 | CCc1c(N2CCN(C(=O)c3c(OC)ncc(C)c3O)CC2)c(=O)c2nn(-c3ccnc(OC)c3)nc2n1CC(=O)NC12CC(C(C)(F)F)(C1)C2 [Compound I-122, N-[3-(1,1-difluoroethyl)bicyclo[1.1.1]pentan-1-yl]-2-{5-ethyl-6-[4-(4-hydroxy-2-methoxy-5-methylpyridine-3-carbonyl)piperazin-1-yl]-2-(2-methoxypyridin-4-yl)-7-oxo-2H,4H,7H-[1,2,3]triazolo[4,5-b]pyridin-4-yl}acetamide] | 500 to 2000 | 5 to 50 | 
6 | CCc1c(N2CCN(C(=O)c3ncnc(C)c3O)C3CCC[C@H]32)c(=O)c2nn(-c3ccnc(OC)c3)nc2n1CC(=O)NC12CC(C(C)C)(C1)C2 (stereo in doubt) [Compound I-76, rel-2-{6-[(4aR,7aS)-4-(5-hydroxy-6-methylpyrimidine-4-carbonyl)-octahydro-1H-cyclopenta[b]pyrazin-1-yl]-5-ethyl-2-(2-methoxypyridin-4-yl)-7-oxo-2H,4H,7H-[1,2,3]triazolo[4,5-b]pyridin-4-yl}-N-[3-(propan-2-yl)bicyclo[1.1.1]pentan-1-yl]acetamide] | 500 to 2000 | 5 to 50 | 
7 | CCc1c(C2=CCN(C(=O)c3ncnc(C)c3O)CC2(C)C)c(=O)n2nc(C3=CCOCC3)nc2n1CC(=O)Nc1ccc(C(F)(F)F)cc1Cl [Compound I-174, N-[2-chloro-4-(trifluoromethyl)phenyl]-2-[2-(3,6-dihydro-2H-pyran-4-yl)-5-ethyl-6-[1-(5-hydroxy-6-methylpyrimidine-4-carbonyl)-3,3-dimethyl-1,2,3,6-tetrahydropyridin-4-yl]-7-oxo-4H,7H-[1,2,4]triazolo[1,5-a]pyrimidin-4-yl]acetamide] | ≤ 500 | 5 to 50 | 
8 | CCc1c(N2CCN(C(=O)c3ncnc(C)c3O)[C@H]3CC[C@@H]32)c(=O)c2nn(-c3ccnc(OC)c3)nc2n1CC(=O)NC12CC(C(C)C)(C1)C2 [Compound I-14, 2-(5-ethyl-6-((1S,6S)-5-(5-hydroxy-6-methylpyrimidine-4-carbonyl)-2,5-diazabicyclo[4.2.0]octan-2-yl)-2-(2-methoxypyridin-4-yl)-7-oxo-2,7-dihydro-4H-[1,2,3]triazolo[4,5-b]pyridin-4-yl)-N-(3-isopropylbicyclo[1.1.1]pentan-1-yl)acetamide] | ≤ 500 | 5 to 50 | 
9 | CCc1c(N2CCN(C(=O)c3c(O)ccc4ncoc34)CC2)c(=O)c2nn(-c3ccnc(OC)c3)nc2n1CC(=O)NC12CC(C(F)(F)F)(C1)C2 [Compound I-150, 2-{5-ethyl-6-[4-(6-hydroxy-1,3-benzoxazole-7-carbonyl)piperazin-1-yl]-2-(2-methoxypyridin-4-yl)-7-oxo-2H,4H,7H-[1,2,3]triazolo[4,5-b]pyridin-4-yl}-N-[3-(trifluoromethyl)bicyclo[1.1.1]pentan-1-yl]acetamide] | ≤ 500 | 5 to 50 | 
10 | CCc1c(N2CCN(C(=O)c3ncnc(C)c3O)[C@H]3CC[C@@H]32)c(=O)c2nn(C3=CCOCC3)nc2n1CC(=O)NC12CC(C3CC3)(C1)C2 [Compound I-26, N-(3-cyclopropylbicyclo[1.1.1]pentan-1-yl)-2-(2-(3,6-dihydro-2H-pyran-4-yl)-5-ethyl-6-((1S,6S)-5-(5-hydroxy-6-methylpyrimidine-4-carbonyl)-2,5-diazabicyclo[4.2.0]octan-2-yl)-7-oxo-2,7-dihydro-4H-[1,2,3]triazolo[4,5-b]pyridin-4-yl)acetamide] | ≤ 500 | 5 to 50 | 
11 | CCc1c(C2=CCN(C(=O)c3ncnc(C)c3O)C[C@H]2C)c(=O)c2nn(-c3ccnc(OC)c3)nc2n1CC(=O)NC12CC(C(C)C)(C1)C2 (single isomer, unassigned) [Compound I-80] | ≤ 500 | 5 to 50 | 
12 | CCc1c(N2CCN(C(=O)c3ncnc(C)c3O)[C@H]3CC[C@@H]32)c(=O)c2nn(-c3cnn(C4CC4)c3)nc2n1CC(=O)NC12CC(C(C)C)(C1)C2 [Compound I-58, 2-[2-(1-cyclopropyl-1H-pyrazol-4-yl)-5-ethyl-6-[(1S,6S)-5-(5-hydroxy-6-methylpyrimidine-4-carbonyl)-2,5-diazabicyclo[4.2.0]octan-2-yl]-7-oxo-2H,4H,7H-[1,2,3]triazolo[4,5-b]pyridin-4-yl]-N-[3-(propan-2-yl)bicyclo[1.1.1]pentan-1-yl]acetamide] |  | 5 to 50 | ≤ 500
13 | CCc1c(N2CCN(C(=O)c3ncnc(C)c3O)[C@H]3CC[C@@H]32)c(=O)c2nn(-c3ccnc(OC)c3)nc2n1CC(=O)NC12CC(C(F)(F)F)(C1)C2 [Compound I-54, 2-{5-ethyl-6-[(1S,6S)-5-(5-hydroxy-6-methylpyrimidine-4-carbonyl)-2,5-diazabicyclo[4.2.0]octan-2-yl]-2-(2-methoxypyridin-4-yl)-7-oxo-2H,4H,7H-[1,2,3]triazolo[4,5-b]pyridin-4-yl}-N-[3-(trifluoromethyl)bicyclo[1.1.1]pentan-1-yl]acetamide] |  | 5 to 50 | ≤ 500
14 | CCc1c(N2CCN(C(=O)c3ncnc(C)c3O)[C@H]3CC[C@@H]32)c(=O)c2nn(-c3ccnc(C)c3)nc2n1CC(=O)NC12CC(C3CC3)(C1)C2 [Compound I-19, N-(3-cyclopropylbicyclo[1.1.1]pentan-1-yl)-2-(5-ethyl-6-((1S,6S)-5-(5-hydroxy-6-methylpyrimidine-4-carbonyl)-2,5-diazabicyclo[4.2.0]octan-2-yl)-2-(2-methylpyridin-4-yl)-7-oxo-2,7-dihydro-4H-[1,2,3]triazolo[4,5-b]pyridin-4-yl)acetamide] | ≤ 500 | 5 to 50 | 
15 | CCc1c(N2CCN(C(=O)c3cccc4c3OCC4)[C@H]3CC[C@@H]32)c(=O)c2nn(-c3ccnc(OC)c3)nc2n1CC(=O)Nc1ccc(C(F)(F)F)cc1Cl [Compound I-120, N-[2-chloro-4-(trifluoromethyl)phenyl]-2-{6-[(1S,6S)-5-(2,3-dihydro-1-benzofuran-7-carbonyl)-2,5-diazabicyclo[4.2.0]octan-2-yl]-5-ethyl-2-(2-methoxypyridin-4-yl)-7-oxo-2H,4H,7H-[1,2,3]triazolo[4,5-b]pyridin-4-yl}acetamide] | 500 to 2000 | 5 to 50 | 
16 | CCc1c(N2CCN(C(=O)c3c(OCCOC)ncc(C)c3O)CC2)c(=O)c2nn(-c3ccnc(OC)c3)nc2n1CC(=O)NC12CC(C(C)C)(C1)C2 [Compound I-45, 2-(5-ethyl-6-{4-[4-hydroxy-2-(2-methoxyethoxy)-5-methylpyridine-3-carbonyl]piperazin-1-yl}-2-(2-methoxypyridin-4-yl)-7-oxo-2H,4H,7H-[1,2,3]triazolo[4,5-b]pyridin-4-yl)-N-[3-(propan-2-yl)bicyclo[1.1.1]pentan-1-yl]acetamide] | ≤ 500 | 5 to 50 | 
17 | CCc1c(N2CCN(C(=O)c3ncnc(C)c3O)[C@H]3CC[C@@H]32)c(=O)c2nn(-c3ccnc(OC)c3)nc2n1CC(=O)NC12CC(C3CC3)(C1)C2 [Compound I-10, N-(3-cyclopropylbicyclo[1.1.1]pentan-1-yl)-2-(5-ethyl-6-((1S,6S)-5-(5-hydroxy-6-methylpyrimidine-4-carbonyl)-2,5-diazabicyclo[4.2.0]octan-2-yl)-2-(2-methoxypyridin-4-yl)-7-oxo-2,7-dihydro-4H-[1,2,3]triazolo[4,5-b]pyridin-4-yl)acetamide] | ≤ 500 | 5 to 50 | 

Source: patent US20250129069A1, “TRIAZOLO WRN INHIBITORS” (Nimbus Wadjet, Inc., priority 2023, published 2025)
